Data taken from US6060462A, “Electrophilic peptide analogs as inhibitors of trypsin-like enzymes” (DuPont Pharmaceuticals Company, priority 1997, dated 2000).
Structures can show the parent of a compound that is named as a salt. Where two headings read alike, the source gives them in different places.

Columns and labels:
Assay type in all cases: biochemical
[1] = molecular target: human thrombin (Homo sapiens, UniProt P00734); experiment: Inhibition of thrombin hydrolysis of chromogenic substrate S2238 (Ki); design: 0.2-0.5 nM human thrombin or human factor Xa; purchased Enzyme Research Laboratories, South Bend, Ind; conditions: purified human thrombin, 0.10 M sodium phosphate buffer, pH 7.5, read-out: Ki values for inhibition of Serine Proteases: Trombin
Protocol: (§1) The effectiveness of compounds of the present invention as inhibitors of blood coagulation proteases was determined using purified human proteases and synthetic substrates following procedures similar to those described in Kettner et al. (1990).
(§2) For these assays, the rate of enzymatic (thrombin, Factor Xa, and Factor VIIa) hydrolysis of chromogenic substrates (S2238 (H-D-Phe-Pip-Arg-pNA), S2222, and S2288, respectively; Kabi Pharmacia, Franklin, Ohio) was measured both in the absence and presence of compounds of the present invention. […] A decrease in the rate of absorbance change at 405 nm in the presence of inhibitor is indicative of enzyme inhibition. The results of this assay are expressed as inhibitory constant, Ki.
(§3) Thrombin and Xa determinations were made in 0.10 M sodium phosphate buffer, pH 7.5, containing 0.20 M NaCl, and 0.5% PEG 8000. VIIa determinations were made in 0.05 M tris buffer, pH 7.6, containing 0.10 M NaCl, 4 mM CaCl2, and 0.1% bovine serum albumin.
(§4) Reactions were allowed to go for 30 minutes and the velocities (rate of absorbance change vs time) were measured in the time frame of 25-30 minutes. The following relationship was used to calculate Ki values. [formula] where: vo is the velocity of the control in the absence of inhibitor;
(§5) vs is the velocity in the presence of inhibitor;
(§6) I is the concentration of inhibitor;
(§7) Ki is the dissociation constant of the enzyme: inhibitor complex;
(§8) S is the concentration of substrate;
(§9) Km is the Michaelis constant.

[2] = molecular target: T1, human factor VIIa (Homo sapiens, UniProt P08709); experiment: Inhibition of Factor VIIa hydrolysis of chromogenic substrate S2288 (Ki); conditions: purified human factor VIIa, 0.05 M tris buffer; for Ki: pH 7.6, read-out: Ki values for inhibition of Serine Proteases: Factor VIIa; for Ki values for inhibition of Serine Proteases: Factor VIIa: pH 7.6
T1 construct: 50 nM human factor VIIa (BiosPacific, Emeryville, Calif.); purchased BiosPacific, Emeryville, Calif
T1 sequence (P08709 213-466 limits assumed): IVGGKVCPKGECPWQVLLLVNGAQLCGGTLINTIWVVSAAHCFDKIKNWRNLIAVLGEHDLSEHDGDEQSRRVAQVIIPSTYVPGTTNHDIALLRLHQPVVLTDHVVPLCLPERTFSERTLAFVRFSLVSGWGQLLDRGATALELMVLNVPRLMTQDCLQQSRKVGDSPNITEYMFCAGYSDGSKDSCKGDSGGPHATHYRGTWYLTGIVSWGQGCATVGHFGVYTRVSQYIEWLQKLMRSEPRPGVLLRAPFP
T1 sequence (P08709 61-212 partner limits assumed): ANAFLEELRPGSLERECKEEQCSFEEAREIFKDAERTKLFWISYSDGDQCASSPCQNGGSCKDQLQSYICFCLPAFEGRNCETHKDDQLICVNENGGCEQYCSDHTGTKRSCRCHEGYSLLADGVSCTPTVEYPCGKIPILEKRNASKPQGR
Protocol: as §1, §2, §3, §4, §5, §6, §7, §8, §9

[3] = molecular target: T2, human factor Xa (Homo sapiens, UniProt P00742); experiment: Inhibition of Factor Xa hydrolysis of chromogenic substrate S2222 (Ki); conditions: purified human factor Xa, 0.10 M sodium phosphate buffer
T2 construct: 0.2-0.5 nM human thrombin or human factor Xa; purchased Enzyme Research Laboratories, South Bend, Ind
T2 sequence (P00742 235-488 limits assumed): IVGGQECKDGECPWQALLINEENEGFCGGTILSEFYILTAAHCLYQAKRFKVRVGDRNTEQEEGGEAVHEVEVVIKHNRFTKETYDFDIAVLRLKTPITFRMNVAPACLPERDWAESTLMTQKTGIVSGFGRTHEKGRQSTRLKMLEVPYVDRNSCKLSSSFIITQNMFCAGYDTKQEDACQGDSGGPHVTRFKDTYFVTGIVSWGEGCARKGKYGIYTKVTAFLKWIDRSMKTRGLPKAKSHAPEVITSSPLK
T2 sequence (P00742 41-179 partner limits assumed): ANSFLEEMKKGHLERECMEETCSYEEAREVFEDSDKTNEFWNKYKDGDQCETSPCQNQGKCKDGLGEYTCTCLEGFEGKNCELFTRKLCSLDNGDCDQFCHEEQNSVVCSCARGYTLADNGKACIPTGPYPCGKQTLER
Protocol: as §1, §2, §3, §4, §5, §6, §7, §8, §9

[4] = pH 7.5, read-out: Ki values for inhibition of Serine Proteases: Factor Xa

Ki [1]	Ki [2]	Ki [3, 4]	Ki values for inhibition of Serine Proteases: Factor VIIa [2]	Ki values for inhibition of Serine Proteases: Factor Xa ([3]; pH 7.5)	Ki ([3]; pH 7.5, HCl, read-out: Ki values for inhibition of Serine Proteases: Factor Xa)	Compound
< 500 nM	< 500 nM	< 500 nM	–	–	–	CC(C)(CN(CC(=O)NC(CCCNC(=N)N)B(O)O)C(=O)CCc1ccccc1)c1ccccc1 (stereo not drawn) [Example 55.1.1, Hydrocinnamoyl-[N-(2,2-(Dimethyl)-Phenethyl)-Gly]-boroArg--OH HCl]
< 500 nM	< 50000 nM	< 500 nM	–	–	–	[3-(Trifluoromethyl)-Benzyl]-Benzoyl-Sar-boroLys-C10H16 HCl [Example 64.2.2]
< 500 nM	< 500 nM	< 500 nM	–	–	–	(2-(2-Cyano)-Thiophenyl)-Benzoyl-Sar-boroOrn(CH=NH)-C10H16 HCl [Example 62.4.1]
< 500 nM	< 50000 nM	< 50000 nM	–	–	–	CC(C)(CN(CC(=O)NC(CCCN)B1OC2CC3CC(C3(C)C)C2(C)O1)C(=O)CCc1ccccc1)c1ccccc1 (stereo not drawn) [Example 60.3.3, Hydrocinnamoyl-[N-(2,2-(Dimethyl)-Phenethyl)-Gly]-boroOrn-C10H16 HCl]
< 500 nM	< 50000 nM	< 50000 nM	–	–	–	CC(C)(C)OC(=O)NC(CCC(=O)O)C(=O)N(CCc1ccccc1)CC(=O)NC(CCCCN)B(O)O (stereo not drawn) [Example 68.2.1, Boc-Glu-[N-(Phenethyl)-Gly]-boroLys--OH]
< 500 nM	< 50000 nM	< 500 nM	–	–	–	CN(CC(=O)NC(CCCCSC(=N)N)B1OC2CC3CC(C3(C)C)C2(C)O1)C(=O)c1ccccc1Sc1ccccc1C#N (stereo not drawn) [Example 62.2.2, (2-(2-Cyano)-Thiophenyl)-Benzoyl-Sar-borohomoIrg-C10H16 HBr]
< 500 nM	< 50000 nM	< 50000 nM	–	–	–	CC1(C)C2CC3OB(C(CCCCN)NC(=O)CN(C(=O)CCC(=O)O)C(=O)CCc4ccccc4)OC3(C)C1C2 (stereo not drawn) [Example 54.2.3, Hydrocinnamoyl-[N-(Succinyl)-Gly]-boroLys-C10H16]
< 500 nM	< 500 nM	< 50000 nM	–	–	–	NCCCCC(NC(=O)CN(C(=O)CCc1ccccc1)C1CCCCC1)B(O)O (stereo not drawn) [Example 53.4.3, Hydrocinnamoyl-[N-(Cyclohexyl)-Gly]-boroLys--OH HCl]
< 500 nM	< 500 nM	< 500 nM	–	–	–	Hydrocinnamoyl-[N-(2,2-(Dimethyl)-Phernethyl)-Gly]-boroOrn(CH=NH)-C10H16 HCl [Example 58.1.1]
< 500 nM	< 50000 nM	< 500 nM	–	–	–	(2-(2-Cyano)-Thiophenyl)-Benzoyl-Sar-boroLys(CH=NH)-C10H16 HCl [Example 62.4.2]
< 50000 nM	–	< 50000 nM	inactive	–	–	Pinanediol N-{N-methyl-N-[2-(Thiophenyl)-Benzoyl]Sar}-1-amido-5-thiocyanatobutane boronate [Example 63.5.1]
< 50000 nM	–	< 50000 nM	Inactive	–	–	Hydrocinnamoyl-Sar-Lys--C(=O)--O--(CH2)2--NH2 2 HCl [Example 61.1.3]
< 50000 nM	–	–	Inactive	Inactive	–	CN(CC(=O)NC(CO)CCCCN)C(=O)CCc1ccccc1 (stereo not drawn) [Example 61.3.1, Hydrocinnamoyl-Sar-NHCH(CH20H)(CH2)4--NH2]
< 500 nM	< 500 nM	< 500 nM	–	–	–	Hydrocinnamoyl-[N-(N-(Methyl)-Benzyl)-Gly]-boroLys--OH HCl [Example 53.2.2]
< 500 nM	< 500 nM	< 500 nM	–	–	–	CN(CC(=O)NC(CCCCN)B1OC2CC3CC(C3(C)C)C2(C)O1)C(=O)c1ccccc1Cc1cccc(Cl)c1 (stereo not drawn) [Example 64.2.3, 2-(3-chlorobenzyl)-benzoyl-Sar-Borolys C10 H16.HCl]
< 50000 nM	< 50000 nM	< 50000 nM	–	–	–	CN(CC(=O)NC(CCCCBr)B1OC2CC3CC(C3(C)C)C2(C)O1)C(=O)c1ccccc1Sc1ccccc1C#N (stereo not drawn) [Example 62.1.2]
< 500 nM	< 500 nM	< 500 nM	–	–	–	CC(C)(CN(CC(=O)NC(CCCNC(=N)N)B1OC2CC3CC(C3(C)C)C2(C)O1)C(=O)CCc1ccccc1)c1ccccc1 (stereo not drawn) [Example 56.1.1, Hydrocinnamoyl-[N-(2,2-(Dimethyl)-Phenethyl)-Gly]-boroArg-C10H16 HCl]
< 500 nM	< 50000 nM	< 500 nM	–	–	–	Cc1cccc(CCN(CC(=O)NC(CCCCN)B2OC3CC4CC(C4(C)C)C3(C)O2)C(=O)CCC(=O)O)c1 (stereo not drawn) [Example 73.1.2, Succinyl-[N-(3-(Methyl)-Phenethyl)-Gly]-boroLys-C10H16 HCl]
< 500 nM	–	< 50000 nM	inactive	–	–	CC1(C)C2CC3OB(C(CCCN)NC(=O)CN(CCc4ccccc4)C(=O)CCc4ccccc4)OC3(C)C1C2.Cl (stereo not drawn) [Example 49.1.1, Hydrocinnamoyl-[N-(Phenethyl)-Gly]-boroOrn-C10H16HCl]
< 500 nM	< 50000 nM	< 50000 nM	–	–	–	COC(=O)CCCC(=O)N(CCc1ccccc1)CC(=O)NC(CCCCN)B1OC2CC3CC(C3(C)C)C2(C)O1 (stereo not drawn) [Example 69.4.1, Methyl Glutaryl-[N-(Phenethyl)-Gly]-boroLys-C10H16 HCl]
< 500 nM	< 500 nM	< 500 nM	–	–	–	Hydrocinnamoyl-[N-(2,2-(Dimethyl)-Phenethyl)-Gly]-boroOrn(CH=NH)--OH HCl [Example 57.1.1]
< 500 nM	< 500 nM	< 50000 nM	–	–	–	CCC(CC)(CN(CC(=O)NC(CCCCN)B1OC2CC3CC(C3(C)C)C2(C)O1)C(=O)CCc1ccccc1)c1ccccc1 (stereo not drawn) [Example 54.1.3, Hydrocinnamoyl-[N-(2,2-(Diethyl)-Phenethyl)-Gly]-boroLys-C10H16 HCl]
< 50000 nM	< 50000 nM	< 50000 nM	–	–	–	CN(CC(=O)NC(CCCCN=[N+]=[N-])B1OC2CC3CC(C3(C)C)C2(C)O1)C(=O)c1ccccc1Sc1ccccc1C#N (stereo not drawn) [Example 62.2.3]
< 500 nM	–	< 50000 nM	inactive	–	–	CN(CC(=O)NC(CCCN)B1OC2CC3CC(C3(C)C)C2(C)O1)C(=O)c1ccccc1Sc1ccccc1.Cl (stereo not drawn) [Example 63.3.1, 2-(Thiophenyl)-Benzoyl-Sar-boroOrn-C10H16 HCl]
< 500 nM	< 500 nM	–	–	–	< 50000 nM	CC(C)(CN(CC(=O)NC(CCCCN)B(O)O)C(=O)CCc1ccccc1)c1ccccc1 (stereo not drawn) [Example 59.1.1, Hydrocinnamoyl-[N-(2,2-(Dimethyl)-Phenethyl)-Gly]-boroLys--OH HCl]
< 50000 nM	< 50000 nM	< 50000 nM	–	–	–	Hydrocinnamoyl-Sar-Lys--C(=O)--OCH3 HCl [Example 61.2.1]
< 500 nM	< 50000 nM	< 50000 nM	–	–	–	NCCCCC(NC(=O)CN(CCc1ccccc1)C(=O)CCC(=O)O)B(O)O (stereo not drawn) [Example 68.3.1, Succinyl-[N-(Phenethyl)-Gly]-boroLys--OH]
< 50000 nM	< 50000 nM	< 50000 nM	–	–	–	CN(CC(=O)NC(CCCN)B1OC2CC3CC(C3(C)C)C2(C)O1)C(=O)c1ccccc1Sc1ccccc1C#N (stereo not drawn) [Example 62.3.1, (2-(2-Cyano)-Thiophenyl)-Benzoyl-Sar-boroOrn-C10H16 HCl]
< 500 nM	< 500 nM	< 500 nM	–	–	–	CC1(C)C2CC3OB(C(CCCNC(=N)N)NC(=O)CN(CCc4ccccc4C4CC4)C(=O)CCc4ccccc4)OC3(C)C1C2 (stereo not drawn) [Example 56.1.2, Hydrocinnamoyl-[N-(2-(Cyclopropyl)-Phenethyl)--Gly]-boroArg-C10H16 HCl]
< 500 nM	< 500 nM	< 50000 nM	–	–	–	CC1(C)C2CC3OB(C(CCCCN)NC(=O)CN(CCc4ccccc4C4CCCC4)C(=O)CCc4ccccc4)OC3(C)C1C2 (stereo not drawn) [Example 54.3.2, Hydrocinnamoyl-[N-(2-(Cyclopentyl)-Phenethyl)-Gly]-boroLys-C10H16 HCl]
